# In patent EP0427518B1, “NMDA-Blocking compounds, pharmaceutical compositions, their preparation and use” (priority 1989, dated 1991):
# Key:
# BALB/C mice [1] = experiment: Protection against picrotoxin toxicity; format: in vivo; details: Picrotoxin 4 mg/kg s.c.; vehicle Emulsion; HU-211 10 mg/kg; 120 min post HU-211
# Protocol: (§1) BALB/C mice (20 g) were subcutaneously injected with picrotoxin, strychnine and NMDA in doses of about LD₉₀ and subsequent clinical observations for the occurrence of convulsions and death were carried out within 20 min. The number of mice used and the mortality were assessed at the highest doses administered.
# BALB/C mice [2] = experiment: Protection against NMDA toxicity; format: in vivo; details: for % alive / No.alive total / Onset time of clinical signs: NMDA 125 mg/kg s.c., 120 min post HU-211
# Protocol: as §1
# [3] = cited from earlier work
# Sabra mice [4] = experiment: Induction of stereotypy (stereotypy gradient of Feigenbaum et al.); format: in vivo; details: for Stereotypy Gradient: HU-211 2.5 mg/kg s.c., mean ±SEM; for induction of stereotypy, locomotor hyperactivity and tachycardia: at about 25 mg/kg body weight, summary statement covering stereotypy, locomotor and heart rate tests, mice
# Description: (§2) As will be shown hereafter, the pharmacological profile of HU-211, and other compounds constituting the active ingredients of the present compositions, includes the induction of stereotypy, locomotor hyper-activity and tachycardia in mice (Table 1). […] This possibility was explored by examining the activity of the compounds in protecting against the tremorogenic, convulsive and lethal effects of NMDA and NMDA agonists in mice. Such effects are counteracted by virtually all NMDA antagonists.
# C-57 Black mice = experiment: Inhibition of tremorogenic, convulsive and lethal effects of NMDA in C-57 Black mice; format: in vivo; details: for blockade of NMDA-induced tremor, seizure and lethality: at about 2.5 mg/kg body weight, summary statement, mouse strain not given; for mice in which the tremorogenic, convulsive and lethal effects were prevented: dose 5 mk/kg, NMDA 100 mg/kg
# Protocol: (§3) Sabra mice (an Israeli heterogenous strain) were pretreated with either vehicle alone (control) or HU-211 (1.25 or 2.50 mg/kg; s.c.), followed by NMDA (200 mg/kg; s.c.). […] Similar experiments were performed using C-57 Black mice, in which the dose of NMDA was decreased (100 mg/kg; s.c.). Counteraction by HU-211 of the NMDA-induced effects was more pronounced in the latter strain (which is more sensitive than Sabra mice to the effects of NMDA). In the control series of both strains, which received NMDA without HU-211, all animals died in less than 10 min. following seizure onset.
# The experiments described in Table 2 were repeated with C-57 Black mice, HU-211 replaced by the compound of formula (II) (compound Vb, U.S. Patent No. 4,179,517) and the compound of formula (IIa)(compound XIb, ibid.). NMDA (100 mg/kg) was administered to the mice.
# In addition, the experiments were repeated with the novel compound HU-247.
# Sabra mice [5] = experiment: Locomotor activity (body displacement over 7-cm squares); format: in vivo; details: HU-211 2.5 mg/kg s.c., mean ±SEM
# Description: as §2
# NMDA receptor [6] = experiment: Equilibrium binding of [³H]TCP to well-washed rat brain cortical membranes
# Sabra mice [7] = experiment: Induction of tachycardia (heart rate); format: in vivo; details: HU-211 2.5 mg/kg s.c., mean ±SEM
# Description: as §2
# BALB/C mice [8] = experiment: Protection against strychnine toxicity; format: in vivo; details: Strychnine 1 mg/kg s.c.; vehicle Emulphor; HU-211 10 mg/kg; 75 min post HU-211
# Protocol: as §1
# NMDA receptor [9] = experiment: Kinetics of basal and glutamate/glycine-induced [³H]TCP binding to rat brain cortical membranes
# Protocol: Kinetic experiments were then performed in order to determine whether HU-211 exerts its behavioral effects by acting directly at the glutamate- or the glycine-binding sites of the NMDA receptor.
# Like the competitive NMDA antagonist aminophosphovalerate (AP-5), HU-211 reduces the glutamate/glycine potentiation of [³H]TCP binding.
# HU-211 reduces the rate of binding of [³H]TCP to the NMDA-receptor channel and the rate of dissociation of [³H]TCP-receptor complexes. • A) Time course of basal (without added agonist) and induced with 1 »M L-glutamate and 1 »M glycine) [³H]TCP binding to the NMDA receptor of rat brain cortical membranes. Data represent the basal binding determined in the absence (●) and in the presence (▲) of 10 »M HU-211, and the induced binding determined in the absence (o) and in the presence (△) of 10 »M HU-211. Binding of [³H]TCP to well-washed control membranes was determined under the following conditions: membranes (80 »g protein) were incubated at 25°C in 200 »l HEPES buffer, pH 7.4, containing 5 nM [³H]TCP (total binding) or 5 nM [³H]TCP and 100 »M PCP (phencyclidine) (nonspecific binding), and the reactions were terminated at the indicated times by rapid filtration over polyethyleneimine-treated GF/C filters. The filters were counted in scintillation liquid (Hydroluma, Lumac Inc., Netherlands). HU-211 was prepared as described elsewhere [Mechoulam, R., et al., Tetrahedron:Asymmetry, 1:315-319 (1990)]. Means values (triplicates) of the specific binding of [³H]TCP (total minus non-specific binding) are plotted as a function of the incubation time. The data shown are from one of three experiments that gave similar results. • (B-C) First-order plots of the basal (B) and the induced (C) dissociation of [³H]TCP-receptor complexes. Data represent the basal (without added agonist) dissociation rates determined in the absence (●) and in the presence (▲) of 10 »M HU-211; the induced (with 1 »M L-glutamate and 1 »M glycine) dissociation rates were determined in the absence (o) and in the presence (△) of 10 »M HU-211. Samples were preincubated as described for Figure 2A, at 25°C with 18 nM [³H]TCP for 2 h. Basal dissociation reactions were initiated by the addition of 100 »M unlabeled PCP with or without 10 »M HU-211. For the induced dissociation reactions 1 »M glutamate and 1 »M glycine were also added. Reactions were terminated either immediately (zero time) or at the indicated times. Beq, amount of [³H]TCP bound at zero time. Bt, amount of [³H]TCP boud at time t. […]
# Data represent the concentration-dependent decrease of [³H]TCP binding by HU-211 (o) and by its isomer HU-210 (△). Binding of [³H]TCP (5 nM) was determined as described for Figure 2A, either in the absence (basal) or in the presence (induced) of 1 »M glutamate (A) or of 1 »M glycine (B).
# Reactions were terminated after 10 min. Data are expressed as induced over basal binding as a function of isomer concentrations. […]
# Non-competitive inhibition of glutamate- or glycine-induced [³H]TCP binding by HU-211. Induced [³H]TCP binding, corresponding to the ratio of binding in the presence of glutamate or glycine to binding in their absence, was determined with 5 nM [³H]TCP at 25°C for 10 min. Binding of (³H)TCP to well-washed rat cortical membranes was determined in triplicate, as described previously [Kloog, Y., et al., Biochemistry, 27: 843-848 (1988)], in the absence (basal) and presence of various concentrations of L-glutamate (a) or glycine (b) with and without HU-211, as indicated. […]
# Sabra mice [10] = experiment: Inhibition of tremorogenic, convulsive and lethal effects of NMDA in Sabra mice; format: in vivo
# Protocol: as §3
# [11] = vehicle Emulphor, HU-211 5 mg/kg
# [12] = vehicle Emulsion, HU-211 5 mg/kg
# [13] = vehicle Emulsion, HU-211 10 mg/kg
# [14] = C-57 Black mice, HU-211 1.25 mg/kg s.c. 75 min prior to NMDA 100 mg/kg s.c.
# [15] = C-57 Black mice, HU-211 2.50 mg/kg s.c. 75 min prior to NMDA 100 mg/kg s.c.
# [16] = Sabra mice, HU-211 2.5 mg/kg s.c. 75 min prior to NMDA 200 mg/kg s.c.
structure (smiles),measurement,setting,value
"CCCCCCC(C)(C)c1cc(O)c2c(c1)OC(C)(C)[C@H]1CC=C(CO)C[C@H]21 [HU-211, (+)-(3S,4S)-1,1-dimethylheptyl homolog of 7-hydroxy-Δ⁶-tetrahydrocannabinol]",% alive,BALB/C mice [1],50%
same,No.alive total,BALB/C mice [1],4/8
same,Onset time of clinical signs,BALB/C mice [1],54 min
same,"protection against NMDA toxicity, Emulsion compared with Emulphor preparation",BALB/C mice [2]; HU-211 carried in the Emulsion versus the Emulphor preparation,better protection
same,% alive,BALB/C mice [2]; [11],20%
same,No.alive total,BALB/C mice [2]; [11],2/10
same,Onset time of clinical signs,BALB/C mice [2]; [11],19 min
same,% alive,BALB/C mice [2]; [12],60%
same,No.alive total,BALB/C mice [2]; [12],4/7
same,Onset time of clinical signs,BALB/C mice [2]; [12],7 min
same,% alive,BALB/C mice [2]; [13],80%
same,No.alive total,BALB/C mice [2]; [13],8/10
same,Onset time of clinical signs,BALB/C mice [2]; [13],10 min
same,cannabimimetic activity,[3]; even at doses several thousand times higher than ED₅₀ of HU-210,inactive
same,Stereotypy Gradient,Sabra mice [4]; time 0 min,0.4±0.1
same,Stereotypy Gradient,Sabra mice [4]; time 15 min,1.3±0.2
same,Stereotypy Gradient,Sabra mice [4]; time 30 min,2.2±0.1
same,Stereotypy Gradient,Sabra mice [4]; time 45 min,0.7±0.2
same,Stereotypy Gradient,Sabra mice [4]; time 60 min,0.6±0.3
same,"induction of stereotypy, locomotor hyperactivity and tachycardia",Sabra mice [4],"induce stereotypy, locomotor hyperactivity and tachycardia"
same,mice that exhibited no tremors or seizures and stayed alive for more than four days following NMDA administration,"C-57 Black mice; C-57 Black mice pretreated with HU-211 (2.50 mg/kg s.c.), NMDA 100 mg/kg s.c.",six of the seven
same,Time until death,C-57 Black mice; [14],18.6 ± 4.2 min
same,Time until first seizure,C-57 Black mice; [14],13.2 ± 2.6 min
same,Time until first tremor,C-57 Black mice; [14],12.0 ± 2.6 min
same,Time until death,C-57 Black mice; [15],>5800 min
same,Time until first seizure,C-57 Black mice; [15],5800 min
same,Time until first tremor,C-57 Black mice; [15],>5800 min
same,persistence of the anti-NMDA effects,"C-57 Black mice; C-57 Black mice, repeated NMDA 100 mg/kg one day later in the six surviving mice, preliminary results",more than 24 h
same,"blockade of NMDA-induced tremor, seizure and lethality",C-57 Black mice,potent blockers
same,Locomotor Activity,"Sabra mice [5]; time 0 min, score = squares crossed",32.0±6.0
same,Locomotor Activity,Sabra mice [5]; time 15 min,45.0±2.0
same,Locomotor Activity,Sabra mice [5]; time 30 min,37.0±4.04
same,Locomotor Activity,Sabra mice [5]; time 45 min,28.0±13.0
same,Locomotor Activity,Sabra mice [5]; time 60 min,17.0±7
same,equilibrium binding of 5 nM [³H]TCP,NMDA receptor [6]; 100 »M HU-211,not inhibited
same,maximum binding capacity of [3H]TCP,"NMDA receptor [6]; in the presence of HU-211 10 »M, 2-100 nM [³H]TCP, 1 »M glutamate and 1 »M glycine (control 3.4)",3.5 pmol/mg protein
same,Heart Rate,Sabra mice [7]; time 0 min,169.2±2.5 per min
same,Heart Rate,Sabra mice [7]; time 75 min,186.8±2.5 per min
same,% alive,BALB/C mice [8],80%
same,No.alive total,BALB/C mice [8],8/10
same,dissociation rate of [³H]TCP from the NMDA receptor,"NMDA receptor [9]; 10 »M HU-211, both in absence and presence of 1 »M glutamate and 1 »M glycine, much more strongly in their presence",decreased the dissociation rate
same,inhibition of the induced [³H]TCP binding compared with the (-)enantiomer HU-210,"NMDA receptor [9]; Figure 3, stereospecificity",far more potent inhibitor
same,efficacy of glutamate- or glycine-induced [³H]TCP binding,"NMDA receptor [9]; HU-211 10 and 5 »M, apparent affinities of glutamate and glycine not altered",reduced the efficacy
same,rate of association of [³H]TCP binding to the NMDA receptor,"NMDA receptor [9]; basal (no added agonist), 10 »M HU-211",only a small decrease
same,association rate of [³H]TCP binding,"NMDA receptor [9]; induced: 1 »M glutamate and 1 »M glycine, 10 »M HU-211",marked decrease
same,mice that exhibited no tremors or seizures and stayed alive for more than four days following NMDA administration,"Sabra mice [10]; Sabra mice pretreated with HU-211 (2.5 mg/kg s.c.), NMDA 200 mg/kg s.c.",two of the five
same,Time until death,Sabra mice [10]; [16],20.2 ± 7.0 min
same,Time until first seizure,Sabra mice [10]; [16],18.0 ± 7.0 min
same,Time until first tremor,Sabra mice [10]; [16],8.2 ± 1.3 min
CCCCCCC(C)(C)c1cc(O)c2c(c1)OC(C)(C)[C@H]1CCC(C)=C[C@H]21 [IIa],"induction of stereotypy, locomotor hyperactivity and tachycardia",Sabra mice [4],"induce stereotypy, locomotor hyperactivity and tachycardia"
same,"mice in which the tremorogenic, convulsive and lethal effects were prevented",C-57 Black mice; C-57 Black mice,4 out of 6
same,"blockade of NMDA-induced tremor, seizure and lethality",C-57 Black mice,potent blockers
"CCCCCCC(C)(C)c1cc(O)c2c(c1)OC(C)(C)[C@@H]1CC=C(CO)C[C@@H]21 [HU-210, 7-hydroxy-Δ⁶-tetrahydrocannabionol 1,1-dimethylheptyl homolog, reference compound]",cannabimimetic activity relative to Δ-1-tetrahydrocannabionol,[3]; more active than Δ-1-tetrahydrocannabionol,~100 times
CCCCCCC(C)(C)c1cc(OC(C)=O)c2c(c1)OC(C)(C)[C@H]1CC=C(CO)C[C@H]21 [HU-247],"mice in which the tremorogenic, convulsive and lethal effects of NMDA were fully prevented","C-57 Black mice; C-57 Black mice, dose 2.5 mg/kg, same conditions as Table 2",6 out of 7
CCCCCCC(C)(C)c1cc(O)c2c(c1)OC(C)(C)[C@H]1CC=C(C)C[C@H]21 [II],"induction of stereotypy, locomotor hyperactivity and tachycardia",Sabra mice [4],"induce stereotypy, locomotor hyperactivity and tachycardia"
same,"mice in which the tremorogenic, convulsive and lethal effects were prevented",C-57 Black mice; C-57 Black mice,4 out of 6
same,"blockade of NMDA-induced tremor, seizure and lethality",C-57 Black mice,potent blockers
